The results in this text go back to patent publication US20140243302A1, “BRIDGED BICYCLIC COMPOUNDS FOR THE TREATMENT OF BACTERIAL INFECTIONS” (priority 2011, published 2014).

Structures are written as SMILES. In brackets after ≈: the same amount, converted by molar mass.

The assay concerns Staphylococcus aureus Smith. Kind of assay: MIC assay, modified agar dilution (CLSI), S. aureus Smith. In kind it is cell-based. The conditions noted are these: Staphylococcus aureus, agar dilution, 35° C., 16-20 hr; lowest concentration that completely inhibited growth; read-out: S_aureus_Smith_WT_MIC. The essentials: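 Agar dilution per CLSI on Mueller Hinton agar (plus 5% horse blood for S. pneumoniae and E. faecium), compound 128 to 0.001 μg/mL in two-fold steps. Spots of ~1×10^4 CFU incubated at 35 °C for 16-20 hr before MIC scoring.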
Turning to `Cc1nc2ccccc2n(CCC23CCC(NCc4ccc5c(n4)NC(=O)CO5)(CC2)CO3)c1=O` [Example 114, 6-((1-(2-(3-Methyl-2-oxoquinoxalin-1(2H)-yl)ethyl)-2-oxabicyclo[2.2.2]octan-4-ylamino)methyl)-2H-pyrido[3,2-b][1,4]oxazin-3(4H)-one], the MIC amounted to 4 µg/mL (≈ 8.41 µM). With `COc1cc2ncc(=O)n(CCC34CCC(NCc5ccc6c(n5)NC(=O)CO6)(CC3)CO4)c2cc1OC` [Example 115, 6-((1-(2-(6,7-Dimethoxy-2-oxoquinoxalin-1(2H)-yl)ethyl)-2-oxabicyclo[2.2.2]octan-4-ylamino)methyl)-2H-pyrido[3,2-b][1,4]oxazin-3(4H)-one] the figure was 0.5 µg/mL (≈ 0.959 µM); with `O=C1COc2ccc(CNC34CCC(CCn5c(=O)ccc6cccnc65)(CC3)OC4)nc2N1` [Example 116, 6-((1-(2-(2-Oxo-1,8-naphthyridin-1(2H)-yl)ethyl)-2-oxabicyclo[2.2.2]octan-4-ylamino)methyl)-2H-pyrido[3,2-b][1,4]oxazin-3(4H)-one], 16 µg/mL (≈ 34.7 µM); with `Cc1nnc2c(=O)n(CCC34CCC(NCc5ccc6c(n5)NC(=O)CO6)(CC3)CO4)c3ccccc3n12` [Example 117, 6-((1-(2-(1-Methyl-4-oxo-[1,2,4]triazolo[4,3-a]quinoxalin-5(4H)-yl)ethyl)-2-oxabicyclo[2.2.2]octan-4-ylamino)methyl)-2H-pyrido[3,2-b][1,4]oxazin-3(4H)-one], 64 µg/mL (≈ 124 µM).

Consider `O=C1COc2ccc(CNC34CCC(CCN5C(=O)N6CCCN=C6c6ccccc65)(CC3)OC4)nc2N1` [Example 118, 6-(((1-(2-(6-Oxo-3,4-dihydro-2H-pyrimido[1,2-c]quinazolin-7(6H)-yl)ethyl)-2-oxabicyclo[2.2.2]octan-4-yl)amino)methyl)-2H-pyrido[3,2-b][1,4]oxazin-3(4H)-one], for which the MIC amounted to 32 µg/mL (≈ 61.9 µM).

Regarding `O=C1COc2ccc(CNC34CCC(CCn5c(=O)ccc6ncc(F)cc65)(CC3)OC4)nc2N1` [Example 119, 6-((1-(2-(7-Fluoro-2-oxo-1,5-naphthyridin-1(2H)-yl)ethyl)-2-oxabicyclo[2.2.2]octan-4-ylamino)methyl)-2H-pyrido[3,2-b][1,4]oxazin-3(4H)-one], the MIC was found to be 0.125 µg/mL (≈ 0.261 µM). Under `COc1cnc2ccc(=O)n(CCC34CCC(NCc5ccc6c(n5)NC(=O)CO6)(CC3)CO4)c2c1` [Example 120, 6-(((1-(2-(7-Methoxy-2-oxo-1,5-naphthyridin-1(2H)-yl)ethyl)-2-oxabicyclo[2.2.2]octan-4-yl)amino)methyl)-2H-pyrido[3,2-b][1,4]oxazin-3(4H)-one] stands 0.016 µg/mL (≈ 0.0326 µM); under `COc1cnc2ncc(=O)n(CCC34CCC(NCc5ccc6c(n5)NC(=O)CO6)(CC3)CO4)c2c1` [Example 121, 6-(((1-(2-(7-Methoxy-2-oxopyrido[2,3-b]pyrazin-1(2H)-yl)ethyl)-2-oxabicyclo[2.2.2]octan-4-yl)amino)methyl)-2H-pyrido[3,2-b][1,4]oxazin-3(4H)-one], 0.016 µg/mL (≈ 0.0325 µM).

As for `COc1ccc2ncc(=O)n(CCC34CCC(NCc5cc6c(cn5)OCCO6)(CC3)CO4)c2n1` [Example 122, 4-(2-(4-((2,3-Dihydro-[1,4]dioxino[2,3-c]pyridin-7-yl)methylamino)-2-oxabicyclo[2.2.2]octan-1-yl)ethyl)-6-methoxypyrido[3,2-b]pyrazin-3(4H)-one], the MIC was 0.063 µg/mL (≈ 0.131 µM). Under `COc1ccc2ncc(=O)n(CCC34CCC(NCc5cc6ccccc6n(C)c5=O)(CC3)CO4)c2n1` [Example 123, 6-Methoxy-4-(2-(4-((1-methyl-2-oxo-1,2-dihydroquinolin-3-yl)methylamino)-2-oxabicyclo[2.2.2]octan-1-yl)ethyl)pyrido[3,2-b]pyrazin-3(4H)-one] stands 1 µg/mL (≈ 1.99 µM). Under `COc1ccc2ncc(O)c(CCC34CCC(NCc5ccc6c(n5)NC(=O)CO6)(CC3)CO4)c2n1` [Example 124, 6-(((1-(2-(3-Hydroxy-6-methoxy-1,5-naphthyridin-4-yl)ethyl)-2-oxabicyclo[2.2.2]octan-4-yl)amino)methyl)-2H-pyrido[3,2-b][1,4]oxazin-3(4H)-one] stands 0.031 µg/mL (≈ 0.0631 µM); under `COc1ccc2ncc(F)c(CCC34CCC(NCc5ccc6c(n5)NC(=O)CO6)(CC3)CO4)c2c1.Cl` [Example 125, 6-((1-(2-(3-Fluoro-6-methoxyquinolin-4-yl)ethyl)-2-oxabicyclo[2.2.2]octan-4-ylamino)methyl)-2H-pyrido[3,2-b][1,4]oxazin-3(4H)-one Hydrochloride], 0.016 µg/mL. Under `Cc1ccc2ncc(=O)n(CCC34CCC(NCc5ccc6c(n5)NC(=O)CO6)(CC3)CO4)c2n1` [Example 126, 6-(((1-(2-(6-Methyl-3-oxopyrido[2,3-b]pyrazin-4(3H)-yl)ethyl)-2-oxabicyclo[2.2.2]octan-4-yl)amino)methyl)-2H-pyrido[3,2-b][1,4]oxazin-3(4H)-one] stands 0.25 µg/mL (≈ 0.525 µM); under `COC(=O)c1cnc2ccc(=O)n(CCC34CCC(NCc5ccc6c(n5)NC(=O)CO6)(CC3)CO4)c2c1.Cl` [Example 127, Methyl 6-Oxo-5-(2-(4-((3-oxo-3,4-dihydro-2H-pyrido[3,2-b][1,4]oxazin-6-yl)methylamino)-2-oxabicyclo[2.2.2]octan-1-yl)ethyl)-5,6-dihydro-1,5-naphthyridine-3-carboxylate Hydrochloride], 0.25 µg/mL.

For `N#Cc1cnc2ccc(=O)n(CCC34CCC(NCc5ccc6c(n5)NC(=O)CO6)(CC3)CO4)c2c1` [Example 128, 6-Oxo-5-(2-(4-((3-oxo-3,4-dihydro-2H-pyrido[3,2-b][1,4]oxazin-6-yl)methylamino)-2-oxabicyclo[2.2.2]octan-1-yl)ethyl)-5,6-dihydro-1,5-naphthyridine-3-carbonitrile], the MIC came to 0.063 µg/mL (≈ 0.129 µM). With `O=C1COc2ccc(CNC34CCC(CCn5c(=O)ccc6ncc(Cl)cc65)(CC3)OC4)nc2N1` [Example 129, 6-((1-(2-(7-Chloro-2-oxo-1,5-naphthyridin-1(2H)-yl)ethyl)-2-oxabicyclo[2.2.2]octan-4-ylamino)methyl)-2H-pyrido[3,2-b][1,4]oxazin-3(4H)-one] the figure was 0.063 µg/mL (≈ 0.127 µM). Under `O=C1COc2ccc(CNC34CCC(CCn5c(=O)ccc6ncc(Br)cc65)(CC3)OC4)nc2N1` [Example 130, 6-((1-(2-(7-Bromo-2-oxo-1,5-naphthyridin-1(2H)-yl)ethyl)-2-oxabicyclo[2.2.2]octan-4-ylamino)methyl)-2H-pyrido[3,2-b][1,4]oxazin-3(4H)-one] stands 0.063 µg/mL (≈ 0.117 µM); under `COc1ccc2ccc(=O)n(CCC34CCC(NCc5ccc6c(n5)NC(=O)CO6)(CC3)CO4)c2n1.Cl` [Example 131, 6-((1-(2-(7-Methoxy-2-oxo-1,8-naphthyridin-1(2H)-yl)ethyl)-2-oxabicyclo[2.2.2]octan-4-ylamino)methyl)-2H-pyrido[3,2-b][1,4]oxazin-3(4H)-one Hydrochloride], 0.016 µg/mL; under `COc1ccc2ncc(F)c(NCC34CCC(NCc5ccc6c(n5)NC(=O)CO6)(CC3)CO4)c2n1` [Example 136, 6-({1-[(3-Fluoro-6-methoxy-[1,5]naphthyridin-4-ylamino)-methyl]-2-oxa-bicyclo[2.2.2]oct-4-ylamino}-methyl)-4H-pyrido[3,2-b][1,4]oxazin-3-one], 0.25 µg/mL (≈ 0.506 µM). In the case of `CCOc1cc(C)c2ncc(F)c(CCC34CCC(NCc5ccc6c(n5)NC(=O)CO6)(CC3)CO4)c2n1` [Example 137, 6-[({1-[2-(6-Ethoxy-3-fluoro-8-methyl-1,5-naphthyridin-4-yl)ethyl]-2-oxabicyclo[2.2.2]oct-4-yl}amino)methyl]-2H-pyrido[3,2-b][1,4]oxazin-3(4H)-one], the MIC was found to be 0.063 µg/mL (≈ 0.121 µM).

Turning to `COc1ccc2ncc(F)c(CC(O)(C(F)(F)F)C34CCC(NCc5ccc6c(n5)NC(=O)CO6)(CC3)CO4)c2n1` (centres unmarked) [Example 138, 6-[({1-[1,1,1-Trifluoro-3-(3-fluoro-6-methoxy-1,5-naphthyridin-4-yl)-2-hydroxypropan-2-yl]-2-oxabicyclo[2.2.2]oct-4-yl}amino)methyl]-2H-pyrido[3,2-b][1,4]oxazin-3(4H)-one], the MIC was 0.5 µg/mL (≈ 0.866 µM). With `COc1cc(C)c2ncc(F)c(CCC34CCC(NCc5ccc6c(n5)NC(=O)CO6)(CC3)CO4)c2c1` [Example 139, 6-((1-(2-(3-Fluoro-6-methoxy-8-methylquinolin-4-yl)ethyl)-2-oxabicyclo[2.2.2]octan-4-ylamino)methyl)-2H-pyrido[3,2-b][1,4]oxazin-3(4H)-one] the figure was 0.063 µg/mL (≈ 0.124 µM); with `COc1cc(C)c2ncc(F)c(CC(O)C34CCC(NCc5ccc6c(n5)NC(=O)CO6)(CC3)CO4)c2c1` (centres unmarked) [Example 140, 6-[({1-[2-(3-Fluoro-6-methoxy-8-methylquinolin-4-yl)-1-hydroxyethyl]-2-oxabicyclo[2.2.2]oct-4-yl}amino)methyl]-2H-pyrido[3,2-b][1,4]oxazin-3(4H)-one], 0.063 µg/mL (≈ 0.121 µM). Under `COc1cc2c(CCC34CCC(NCc5ccc6c(n5)NC(=O)CO6)(CC3)CO4)c(F)cnc2cc1F` [Example 141, 6-[({1-[2-(3,7-Difluoro-6-methoxyquinolin-4-yl)ethyl]-2-oxabicyclo[2.2.2]oct-4-yl}amino)methyl]-2H-pyrido[3,2-b][1,4]oxazin-3(4H)-one] stands 0.063 µg/mL (≈ 0.123 µM). With `COc1ccc2ncc(F)c(CCC34CCC(NCc5ncc6c(n5)NC(=O)CO6)(CC3)CO4)c2n1` [Example 142, 2-((1-(2-(3-Fluoro-6-methoxy-1,5-naphthyridin-4-yl)ethyl)-2-oxabicyclo[2.2.2]octan-4-ylamino)methyl)-6H-pyrimido[5,4-b][1,4]oxazin-7(8H)-one] the figure was 0.031 µg/mL (≈ 0.0627 µM). Turning to `COc1ccc2ncc(F)c(CC(O)C34CCC(NCc5ncc6c(n5)NC(=O)CO6)(CC3)CO4)c2n1` (centres unmarked) [Example 143, 2-((1-(2-(3-Fluoro-6-methoxy-1,5-naphthyridin-4-yl)-1-hydroxyethyl)-2-oxabicyclo[2.2.2]octan-4-ylamino)methyl)-6H-pyrimido[5,4-b][1,4]oxazin-7(8H)-one], the MIC was found to be 0.031 µg/mL (≈ 0.0607 µM).
